Where a SMILES comes first, the peptide text is derived from it. [ ]: non-standard residue; d: D form. The star is where a group is joined. Dolaproine = CO[C@@H]([C@@H]1CCCN1)[C@@H](C)C(=O)O; Dil = CC[C@H](C)[C@H](NC)[C@@H](CC(=O)O)OC; X1 = C[C@@H](N*)[C@@H](O)c1ccccc1; NMeV = CN[C@H](C(=O)O)C(C)C
Columns and labels:
[1] = test system: osteoclast differentiation; assay: Osteoclast differentiation in vitro (TRACP 5b in culture medium); format: cell-based; details: relative to baseline levels; culture medium at day 7 (FIG. 46)
human macrophages = assay: Viability of payload-treated human macrophages (Calcein AM / Ethidium Homodimer-1); format: cell-based; details: free payload; 48-hour incubation; calcein-positive, Ethidium Homodimer-1 negative cells
Protocol: Macrophage differentiation from CD14+ monocytes: Human peripheral blood mononuclear cells (PBMCs) were isolated from blood donors, who provided informed consent, using density gradient centrifugation. Monocytes were then purified from PBMCs utilizing a CD14 selection kit (Stemcell) according to the manufacturer's instructions. The isolated monocytes were differentiated into macrophages by culturing in RPMI 1640 medium supplemented with 10% FBS and 100 ng/mL macrophage colony-stimulating factor (M-CSF) for 5 days.
Viability assay with Calcein AM: To prepare the viability assay with Calcein AM for flow cytometry, 5 μL of Calcein AM (Component A) and 20 μL of Ethidium Homodimer-1 (Component B) was added to 10 mL of DPBS. Cells were centrifuged at 450×G for 5 minutes to remove the culture medium, and 100-200 μL of the staining solution was added directly to the cells and incubated for 30 minutes at room temperature (20-25° C.). After the incubation, cells were centrifuged at 450×G for 5 minutes to remove the supernatant, and resuspended in 150 μL of DPBS. Cells were analyzed by flow cytometry.

Compound | effect on osteoclast differentiation (TRACP 5b) [1] | loss of cell viability of human macrophages (human macrophages)
denosumab: control that reduced osteoclast differentiation [reference compound] | reduced differentiation | 
CC[C@H](C)[C@@H]([C@@H](CC(=O)N1CCC[C@H]1[C@H](OC)[C@@H](C)C(=O)N[C@H](C)[C@@H](O)c1ccccc1)OC)N(C)C(=O)[C@@H](NC(=O)[C@@H](NC)C(C)C)C(C)C [MMAE, monomethylauristatin E] (H-[NMeV]V[Dil][Dolaproine]-X1) |  | at a lower concentration than Exatecan

From US20250361297A1, “ANTI- SIGLEC-15 BINDING MOLECULES AND METHODS OF USE” (ADAPTAM THERAPEUTICS, S.L., priority 2024, published 2025)
